Consider 5 substances from patent publication US10328148B2, “Protein drug formulations and packages” (Purdue Research Foundation, priority 2010, dated 2019).

One data set concerns human IgG. Briefly: Screening of peptides immobilized on POROS-Aldehyde resin for binding of IgG. The note with it: for Affinity for IgG: immobilized peptides from proteolytic digests; for Selectivity of IgG binding: immobilized peptide, IgG from human plasma. The source says: Identifying Peptide Epitopes with Affinity for IgG. Peptide epitopes with high affinity for IgG may be derived readily from combinatorial libraries and proteolytic digests of protein mixtures. Proteolytic digests of Protein G were immobilized on POROS-Aldehyde resin by Schiff base coupling at their N-termini and the peptides screened for their ability to bind IgG from human plasma. […] In all, four peptides showing high affinity for IgG were isolated from protein G digests by this method. Similar peptides with high affinity for human IgG were also isolated and characterized from cytochrome c ([…]) (SEQ ID NO: 6) and mouse anti-human polyclonal IgG digests ([…]) (SEQ ID NO: 7) using this method. […] Without being bound by theory, it is believed herein that because ethylene glycol assists elution, some hydrophobic effects may also be involved.

Another data set concerns IgG. Put plainly: HP-SEC of IgG with free Protein A or Protein G: complex formation and agitation-induced aggregation. It is filed as physicochemical. The settings on record: IgG:Protein A or G ratio 1:4, RT 2 h. The procedure:
Effect of proteins A and G on aggregation of IgG. High performance size exclusion chromatography (HP-SEC) is used to verify that IgG binds with Protein A or Protein G completely. 50 µL aliquots are injected to a Tosoh TSK G 13000 SWXL Gel 3000 column ([…]×7.8 mm) and separated at a flow rate of 0.5 mL/min. The mobile phase contains 50 mM potassium phosphate and 100 mM K2SO4 at pH 7.1. The relative percentage of IgG monomer and dimer are calculated in triplicate as a percentage of the total chromatographic peak area at 280 nm. Fresh IgG is incubated with free Protein A or free Protein G, respectively, at IgG:Protein A or G ratio of 1:4 at RT for 2 h before being subjected to agitation. […] Effect of agitation of protein A and protein G complexes of IgG. The prior Example 1 is repeated, subjecting the IgG+Protein A or IgG+Protein G to agitation on a shaker at room temperature for 44 h.
(In gel filtration, larger molecules generally elute earlier.)

For the substance “GAQGHVVEK (listed as Staphylococcus aureus) [peptide isolated from mouse anti-human polyclonal IgG digests]”, the “Affinity for IgG” value in the data set on human IgG is “high affinity”. Regarding “Protein A: free Protein A, immunoglobulin-binding protein used as polyamino acid ligand”, the “Complex formation with IgG by HP-SEC” value in the data set on IgG is “formation of IgG-Protein A and IgG-Protein G complexes”. For “TVTEKVIDASELTPAVT (listed as Staphylococcus aureus) [peptide from proteolytic digest of Protein G]”, the “Selectivity of IgG binding” value in the data set with human IgG is listed as “comparable to Protein A”. Take “CAQCHTVEK (listed as Staphylococcus aureus) [peptide isolated from cytochrome c digest]”: in the data set on human IgG, the “Affinity for IgG” value is recorded as “high affinity”. “TVTEKPEV (listed as Staphylococcus aureus) [peptide from proteolytic digest of Protein G]”: in the data set with human IgG (by HPLC methods), the Binding constant for human IgG is ~1e+06 M⁻¹. In addition, in the data set with human IgG, the “Selectivity of IgG binding” value is “comparable to Protein A”.
